From ChEMBL document CHEMBL2429780, “Synthesis, antimicrobial and cytotoxic activity of 2-azetidinone derivatives of pyridyl benzimidazoles” (Med Chem Res, 2013)
≈ marks a conversion by molar mass, not a printed value. Calls of active or inactive are those of the source. The rule behind the calls is not given here.

Tests used:
[1] = test system: Streptococcus pyogenes; assay: Antibacterial activity against Streptococcus pyogenes MTCC 442 assessed as growth inhibition after 24 hrs by broth dilution assay; format: functional; details: MTCC 442, 24 h
[2] = test system: Pseudomonas aeruginosa; assay: Antibacterial activity against Pseudomonas aeruginosa MTCC 1688 assessed as growth inhibition after 24 hrs by broth dilution assay; format: functional; details: MTCC 1688, 24 h
[3] = test system: Escherichia coli; assay: Antibacterial activity against Escherichia coli MTCC 443 assessed as growth inhibition after 24 hrs by broth dilution assay; format: functional; details: MTCC 443, 24 h
[4] = test system: Aspergillus clavatus; assay: Antifungal activity against Aspergillus clavatus assessed as growth inhibition after 48 hrs by broth dilution assay; format: functional
[5] = test system: Staphylococcus aureus; assay: Antibacterial activity against Staphylococcus aureus MTCC 96 assessed as growth inhibition after 24 hrs by broth dilution assay; format: functional; details: MTCC 96, 24 h
[6] = test system: Candida albicans; assay: Antifungal activity against Candida albicans assessed as growth inhibition after 48 hrs by broth dilution assay; format: functional
[7] = test system: HeLa; assay: Cytotoxicity against human HeLa cells assessed as growth inhibition after 24 to 72 hrs by MTT assay; format: cell-based
[8] = test system: Aspergillus niger; assay: Antifungal activity against Aspergillus niger assessed as growth inhibition after 48 hrs by broth dilution assay; format: functional
[9] = test system: Aspergillus niger; assay: Antifungal activity against Aspergillus niger assessed as growth inhibition at 12.5 to 1000 ug/mL after 48 hrs by broth dilution assay; format: functional, organism-based
[10] = test system: Candida albicans; assay: Antifungal activity against Candida albicans assessed as growth inhibition at 12.5 to 1000 ug/mL after 48 hrs by broth dilution assay; format: functional, organism-based
[11] = test system: Aspergillus clavatus; assay: Antifungal activity against Aspergillus clavatus assessed as growth inhibition at 12.5 to 1000 ug/mL after 48 hrs by broth dilution assay; format: functional, organism-based
[12] = test system: Escherichia coli; assay: Antibacterial activity against Escherichia coli MTCC 443 assessed as growth inhibition at 12.5 to 1000 ug/mL after 24 hrs by broth dilution assay; format: functional, organism-based
[13] = test system: Streptococcus pyogenes; assay: Antibacterial activity against Streptococcus pyogenes MTCC 442 assessed as growth inhibition at 12.5 to 1000 ug/mL after 24 hrs by broth dilution assay; format: functional, organism-based
[14] = test system: Pseudomonas aeruginosa; assay: Antibacterial activity against Pseudomonas aeruginosa MTCC 1688 assessed as growth inhibition at 12.5 to 1000 ug/mL after 24 hrs by broth dilution assay; format: functional, organism-based
[15] = test system: Staphylococcus aureus; assay: Antibacterial activity against Staphylococcus aureus MTCC 96 assessed as growth inhibition at 12.5 to 1000 ug/mL after 24 hrs by broth dilution assay; format: functional, organism-based

Structure (SMILES) | MIC [1] | MIC [2] | MIC [3] | MIC [4] | MIC [5] | MIC [6] | IC50 [7] | MIC [8] | growth inhibition (GI) [9] | growth inhibition (GI) [10] | growth inhibition (GI) [11] | growth inhibition (GI) [12] | growth inhibition (GI) [13] | growth inhibition (GI) [14] | growth inhibition (GI) [15]
N#Cc1c(-c2ccccc2Cl)cc(-c2nc3ccccc3[nH]2)nc1/N=C/c1ccccc1 | 1000 µg/mL (≈ 2300 µM) | 1000 µg/mL (≈ 2300 µM) |  |  |  |  |  |  |  |  |  |  |  |  | 
Cc1ccc(-c2cc(-c3nc4ccccc4[nH]3)nc(N3C(=O)C(Cl)C3c3ccccc3)c2C#N)cc1 (configuration not stated) | 500 µg/mL (≈ 1020 µM) | 500 µg/mL (≈ 1020 µM) | 100 µg/mL (≈ 204 µM) | 500 µg/mL (≈ 1020 µM) | 250 µg/mL (≈ 510 µM) | 500 µg/mL (≈ 1020 µM) | 74.5 µM | 500 µg/mL (≈ 1020 µM) |  |  |  |  |  |  | 
N#Cc1c(-c2cccc(Cl)c2)cc(-c2nc3ccccc3[nH]2)nc1N1C(=O)C(Cl)C1c1ccccc1 (configuration not stated) | 50 µg/mL (≈ 98 µM) | 25 µg/mL (≈ 49 µM) | 50 µg/mL (≈ 98 µM) | 50 µg/mL (≈ 98 µM) | 25 µg/mL (≈ 49 µM) | 50 µg/mL (≈ 98 µM) | > 100 µM | 25 µg/mL (≈ 49 µM) |  |  |  |  |  |  | 
N#Cc1c(-c2ccc([N+](=O)[O-])cc2)cc(-c2nc3ccccc3[nH]2)nc1N1C(=O)C(Cl)C1c1ccccc1 (configuration not stated) | 25 µg/mL (≈ 48 µM) | 12.5 µg/mL (≈ 24 µM) | 25 µg/mL (≈ 48 µM) | 100 µg/mL (≈ 192 µM) | 12.5 µg/mL (≈ 24 µM) | 100 µg/mL (≈ 192 µM) | > 100 µM | 100 µg/mL (≈ 192 µM) |  |  |  |  |  |  | 
N#Cc1c(-c2cccc(Cl)c2)cc(-c2nc3ccccc3[nH]2)nc1/N=C/c1ccccc1 | 1000 µg/mL (≈ 2300 µM) | 1000 µg/mL (≈ 2300 µM) |  |  |  |  |  |  | inactive | inactive | inactive |  |  |  | 
CC(=O)N1CCN(c2ccc(OCC3COC(Cn4ccnc4)(c4ccc(Cl)cc4Cl)O3)cc2)CC1 (configuration not stated) [KETOCONAZOLE] |  |  |  | 50 µg/mL (≈ 94.1 µM) |  | 50 µg/mL (≈ 94.1 µM) |  | 50 µg/mL (≈ 94.1 µM) |  |  |  |  |  |  | 
Cc1ccc(-c2cc(-c3nc4ccccc4[nH]3)nc(N)c2C#N)cc1 |  |  |  |  |  |  |  |  | inactive | inactive | inactive | inactive | inactive | inactive | inactive
N#Cc1c(-c2ccc(O)cc2)cc(-c2nc3ccccc3[nH]2)nc1N |  |  |  |  |  |  |  |  | inactive | inactive | inactive | inactive | inactive | inactive | inactive
N#Cc1c(-c2cccc(O)c2)cc(-c2nc3ccccc3[nH]2)nc1N |  |  |  |  |  |  |  |  | inactive | inactive | inactive | inactive | inactive | inactive | inactive
N#Cc1c(-c2ccc(Cl)cc2)cc(-c2nc3ccccc3[nH]2)nc1N1C(=O)C(Cl)C1c1ccccc1 (configuration not stated) | 25 µg/mL (≈ 49 µM) | 12.5 µg/mL (≈ 24.5 µM) | 12.5 µg/mL (≈ 24.5 µM) | 100 µg/mL (≈ 196 µM) | 12.5 µg/mL (≈ 24.5 µM) | 100 µg/mL (≈ 196 µM) | > 100 µM | 100 µg/mL (≈ 196 µM) |  |  |  |  |  |  | 
COc1ccc(-c2cc(-c3nc4ccccc4[nH]3)nc(N)c2C#N)cc1 |  |  |  |  |  |  |  |  | inactive | inactive | inactive | inactive | inactive | inactive | inactive
N#Cc1c(-c2cccc([N+](=O)[O-])c2)cc(-c2nc3ccccc3[nH]2)nc1N | ≥ 1000 µg/mL | ≥ 1000 µg/mL |  | ≥ 1000 µg/mL | ≥ 1000 µg/mL | ≥ 1000 µg/mL |  | ≥ 1000 µg/mL |  |  |  |  |  |  | 
COc1cccc(-c2cc(-c3nc4ccccc4[nH]3)nc(N)c2C#N)c1 |  |  |  |  |  |  |  |  | inactive | inactive | inactive | inactive | inactive | inactive | inactive
N#Cc1c(-c2ccc([N+](=O)[O-])cc2)cc(-c2nc3ccccc3[nH]2)nc1N | ≥ 1000 µg/mL | ≥ 1000 µg/mL |  |  | ≥ 1000 µg/mL |  |  |  |  |  |  |  |  |  | 
N#Cc1c(-c2ccc(Cl)cc2O)cc(-c2nc3ccccc3[nH]2)nc1N1C(=O)C(Cl)C1c1ccccc1 (configuration not stated) | 250 µg/mL (≈ 475 µM) | 200 µg/mL (≈ 380 µM) | 500 µg/mL (≈ 950 µM) | 250 µg/mL (≈ 475 µM) | 100 µg/mL (≈ 190 µM) | 250 µg/mL (≈ 475 µM) | 91.5 µM | 250 µg/mL (≈ 475 µM) |  |  |  |  |  |  | 
COc1cccc(-c2cc(-c3nc4ccccc4[nH]3)nc(N3C(=O)C(Cl)C3c3ccccc3)c2C#N)c1 (configuration not stated) | 500 µg/mL (≈ 988 µM) | 500 µg/mL (≈ 988 µM) | 250 µg/mL (≈ 494 µM) | 250 µg/mL (≈ 494 µM) | 500 µg/mL (≈ 988 µM) | 500 µg/mL (≈ 988 µM) | 64 µM | 500 µg/mL (≈ 988 µM) |  |  |  |  |  |  | 
